Results reported in ChEMBL document CHEMBL1201862, “PubChem BioAssay data set” (2004).
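These data come from cells grown in 96-well plates and exposed to compound for 48 hours at five concentrations. At the GI50, growth is halved.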 Calls of active or inactive are those of the source. Rule as the data show it: active = GI50 up to about 1.1 µM and inactive = higher.

Key:
Test in all cases: NCI-60 cell line screen, 48 h
SW-620 = test system: SW-620
SK-OV-3 = test system: SK-OV-3
NCI-H23 = test system: NCI-H23
SNB-75 = test system: SNB-75
NCI/ADR-RES = test system: NCI/ADR-RES
LOX IMVI = test system: LOX IMVI
SR = test system: SR
SF-295 = test system: SF-295
CCRF-CEM = test system: CCRF-CEM
SK-MEL-2 = test system: SK-MEL-2
HCT-15 = test system: HCT-15
MDA-MB-231 = test system: MDA-MB-231
CAKI-1 = test system: CAKI-1
HT-29 = test system: HT-29
NCI-H226 = test system: NCI-H226
M14 = test system: M14
OVCAR-5 = test system: OVCAR-5
RPMI-8226 = test system: RPMI-8226
UACC-257 = test system: UACC-257
EKVX = test system: EKVX
786-0 = test system: 786-0
TK-10 = test system: TK-10
SNB-19 = test system: SNB-19
A498 = test system: A498
IGROV-1 = test system: IGROV-1
ACHN = test system: ACHN
MDA-N = test system: MDA-N
SN12C = test system: SN12C
BT-549 = test system: BT-549
Hs-578T = test system: Hs-578T
HCT-116 = test system: HCT-116
OVCAR-4 = test system: OVCAR-4
NCI-H460 = test system: NCI-H460
HOP-92 = test system: HOP-92
A549 = test system: A549
MCF7 = test system: MCF7
UO-31 = test system: UO-31
T47D = test system: T47D
DU-145 = test system: DU-145
OVCAR-3 = test system: OVCAR-3
KM12 = test system: KM12
U-251 = test system: U-251
OVCAR-8 = test system: OVCAR-8
K562 = test system: K562
SK-MEL-5 = test system: SK-MEL-5
UACC-62 = test system: UACC-62
SF-268 = test system: SF-268
COLO 205 = test system: COLO 205
PC-3 = test system: PC-3
MDA-MB-435 = test system: MDA-MB-435
SK-MEL-28 = test system: SK-MEL-28
HCC 2998 = test system: HCC 2998
HOP-62 = test system: HOP-62
SF-539 = test system: SF-539
HL-60 = test system: HL-60
MOLT-4 = test system: MOLT-4

Compound: COc1ccc(-n2cnc3c(NC(Cc4ccccc4)C(=O)O)ncnc32)cc1 (configuration not stated)
- GI50 (SW-620): > 100 µM (inactive)
- GI50 (SK-OV-3): > 100 µM (inactive)
- GI50 (NCI-H23): > 100 µM (inactive)
- GI50 (SNB-75): > 100 µM (inactive)
- GI50 (NCI/ADR-RES): > 100 µM (inactive)
- GI50 (LOX IMVI): > 100 µM (inactive)
- GI50 (SR): > 100 µM (inactive)
- GI50 (SF-295): > 100 µM (inactive)
- GI50 (CCRF-CEM): > 100 µM (inactive)
- GI50 (SK-MEL-2): > 100 µM (inactive)
- GI50 (HCT-15): > 100 µM
- GI50 (MDA-MB-231): > 100 µM (inactive)
- GI50 (CAKI-1): > 100 µM (inactive)
- GI50 (HT-29): > 100 µM (inactive)
- GI50 (NCI-H226): > 100 µM (inactive)
- GI50 (M14): > 100 µM (inactive)
- GI50 (OVCAR-5): > 100 µM (inactive)
- GI50 (RPMI-8226): > 100 µM (inactive)
- GI50 (UACC-257): > 100 µM (inactive)
- GI50 (EKVX): > 100 µM (inactive)
- GI50 (786-0): > 100 µM (inactive)
- GI50 (TK-10): > 100 µM (inactive)
- GI50 (SNB-19): > 10 µM (inactive)
- GI50 (A498): > 100 µM (inactive)
- GI50 (IGROV-1): > 100 µM (inactive)
- GI50 (ACHN): > 100 µM (inactive)
- GI50 (MDA-N): > 100 µM (inactive)
- GI50 (SN12C): > 100 µM (inactive)
- GI50 (BT-549): > 100 µM (inactive)
- GI50 (Hs-578T): > 100 µM (inactive)
- GI50 (HCT-116): > 100 µM (inactive)
- GI50 (OVCAR-4): > 100 µM (inactive)
- GI50 (NCI-H460): > 100 µM (inactive)
- GI50 (HOP-92): > 100 µM (inactive)
- GI50 (A549): > 100 µM (inactive)
- GI50 (MCF7): > 100 µM (inactive)
- GI50 (UO-31): > 100 µM (inactive)
- GI50 (T47D): 92.7 µM (inactive)
- GI50 (DU-145): > 100 µM (inactive)
- GI50 (OVCAR-3): > 100 µM (inactive)
- GI50 (KM12): > 100 µM (inactive)
- GI50 (U-251): > 100 µM (inactive)
- GI50 (OVCAR-8): > 100 µM (inactive)
- GI50 (K562): > 100 µM (inactive)
- GI50 (SK-MEL-5): > 100 µM (inactive)
- GI50 (UACC-62): > 100 µM (inactive)
- GI50 (SF-268): > 100 µM (inactive)
- GI50 (COLO 205): > 100 µM (inactive)
- GI50 (PC-3): > 100 µM (inactive)
- GI50 (MDA-MB-435): > 100 µM (inactive)
- GI50 (SK-MEL-28): > 100 µM (inactive)
- GI50 (HCC 2998): > 100 µM (inactive)
- GI50 (HOP-62): > 100 µM (inactive)

Compound: CC(=O)C(=NNc1ccc(-n2c(C)nc3ccc(Br)cc3c2=O)cc1)C(C)=O
- GI50 (SW-620): > 100 µM (inactive)
- GI50 (SK-OV-3): > 100 µM (inactive)
- GI50 (NCI-H23): 70.8 µM (inactive)
- GI50 (SNB-75): 20.7 µM (inactive)
- GI50 (NCI/ADR-RES): 54.1 µM (inactive)
- GI50 (LOX IMVI): > 100 µM (inactive)
- GI50 (SR): > 100 µM (inactive)
- GI50 (SF-295): 98.6 µM (inactive)
- GI50 (CCRF-CEM): > 100 µM (inactive)
- GI50 (SK-MEL-2): > 100 µM (inactive)
- GI50 (HCT-15): > 100 µM
- GI50 (MDA-MB-231): 37.2 µM (inactive)
- GI50 (CAKI-1): > 100 µM (inactive)
- GI50 (HT-29): > 100 µM (inactive)
- GI50 (NCI-H226): 72.9 µM (inactive)
- GI50 (M14): > 100 µM (inactive)
- GI50 (OVCAR-5): > 100 µM (inactive)
- GI50 (RPMI-8226): 50.4 µM (inactive)
- GI50 (UACC-257): > 100 µM (inactive)
- GI50 (EKVX): > 100 µM (inactive)
- GI50 (786-0): 33.7 µM (inactive)
- GI50 (TK-10): 56.9 µM (inactive)
- GI50 (SF-539): 47.3 µM (inactive)
- GI50 (SNB-19): 45.6 µM (inactive)
- GI50 (A498): > 100 µM (inactive)
- GI50 (IGROV-1): > 100 µM (inactive)
- GI50 (ACHN): 98.4 µM (inactive)
- GI50 (MDA-N): > 100 µM (inactive)
- GI50 (SN12C): > 100 µM (inactive)
- GI50 (BT-549): > 100 µM (inactive)
- GI50 (Hs-578T): 26.7 µM (inactive)
- GI50 (HCT-116): 88.3 µM (inactive)
- GI50 (NCI-H460): > 100 µM (inactive)
- GI50 (HOP-92): 74.3 µM (inactive)
- GI50 (A549): > 100 µM (inactive)
- GI50 (MCF7): > 100 µM (inactive)
- GI50 (UO-31): > 100 µM (inactive)
- GI50 (T47D): > 100 µM (inactive)
- GI50 (DU-145): 93.8 µM (inactive)
- GI50 (OVCAR-3): > 100 µM (inactive)
- GI50 (KM12): > 100 µM (inactive)
- GI50 (U-251): 58.2 µM (inactive)
- GI50 (OVCAR-8): 53.7 µM (inactive)
- GI50 (K562): > 100 µM (inactive)
- GI50 (SK-MEL-5): 65.6 µM (inactive)
- GI50 (UACC-62): 82.4 µM (inactive)
- GI50 (SF-268): 56.4 µM (inactive)
- GI50 (COLO 205): > 100 µM (inactive)
- GI50 (PC-3): 73.8 µM (inactive)
- GI50 (MDA-MB-435): > 100 µM (inactive)
- GI50 (HL-60): > 100 µM (inactive)
- GI50 (MOLT-4): > 100 µM (inactive)
- GI50 (SK-MEL-28): > 100 µM (inactive)
- GI50 (HOP-62): 35.8 µM (inactive)
